Reference: patent publication US11447533B2, “Antimicrobial and anticancer peptides and conjugates and compositions, methods, articles and kits relating thereto” (George Mason Research Foundation, Inc., priority 2018, dated 2022)
Entries after “also recorded” stand apart in the source; their conditions may differ.

Tests used:
[1] = system: E. coli ML35p outer membrane; assay: NPN assay, outer membrane perturbation; assay type: cell-based, Escherichia coli; conditions: 25 μM peptide, 25 μM PMB = 100%
[2] = Endotoxin binding: competitive displacement of BODIPY TR-Cadaverine from LPS; design: species or system Escherichia coli; conditions: 5 μM peptide; for LPS binding (BC displacement), in words: 10 μM BC, 10 μg/mL LPS, low ionic-strength 10 mM Na-PO4; for increase in affinity for LPS compared to the peptide lacking the hydrophobic tail: vs ATRA1 / ATRA1-R3W2
Description: FIGS. 2A-2B are graphs showing endotoxin binding. The figures depict the competitive displacement of BC from LPS/LTA by the peptides. 5 μM of each peptide was incubated with 10 μM BC and 10 μg/mL LPS from E. coli (0111:B4) or LTA from S. aureus. Fluorescence intensity was measured at excitation=580 nm and emission=620 nm. 10 μM BC without endotoxin was used as 100% displacement while 10 μM BC with 10 μg/mL LPS/LTA without any peptide as 0% displacement and the % displacement of BC by each peptide was calculated accordingly. […] had been used as a positive control. The horizontal dotted line coincides with the % displacement of BC by ATRA1 on the y-axis.
FIGS. 6A-6B are graphs showing endotoxin (LPS (FIG. 6A) and LTA (FIG. 6B)) binding. Competitive displacement of BC from LPS/LTA. In each case, 5 μM peptide was incubated with 10 μM BC and 10 μg/mL LPS from E. coli (0111:B4) or LTA from S. aureus. Fluorescence intensity was measured using excitation=580 nm and emission=620 nm. As a positive control 10 μM BC without endotoxin was used as a reference for 100% displacement while 10 μM BC with 10 μg/mL LPS/LTA without any peptide as a negative control and a reference for 0% displacement. These controls were used to calculate % BC displacement for each peptide.
Endotoxin Binding. The binding of endotoxin (LPS/LTA) was evaluated using a fluorogenic conjugateBODIPY TR-Cadaverine (BC). BC binds endotoxin loses its fluorescence. The peptide competitively displaces BC from endotoxin and the fluorescence is reestablished. Competitive inhibition of endotoxin-BC binding was utilized due to presence of peptides already in complexion with endotoxin. 25 μL of 20 μM of peptides in 10 mM Na—PO4 buffer were incubated with 25 μL of LPS (40 μg/mL) or LTA (40 μg/mL) for 15 min and then added with 50 μL of BC (20 uM). Peptides bind to LPS or LTA and competitively prevents BC bind to the endotoxin. BC loses its fluorescence on binding to endotoxin. The fluorescence intensity of the unbound BC was measured at excitation=580 nm and emission=620 nm.
BC contains two functional moieties: BODIPY (boron-dipyrromethene) and cadaverine connected via a carboxamide. BODIPY is the fluorophore of BC and fluoresces in the free state in solution but loses fluorescence when bound to LPS/LTA. The competitive displacement of BC from LPS/LTA by AMPs and thus regeneration of the fluorescence has frequently been used to estimate the binding strength of AMPs with LPS/LTA. In the present studies, 5 μM of each peptide was used to displace BC from LPS/LTA. […] Such observation contradicts the initial assumption that substitution of Lys with arginine would result in increased efficiency of LPS binding. However, with sequential substitutions of Lys with arginine, starting with ATRA1-AR, peptide variants show increased LPS binding with each additional arginine substitution. In terms of LPS binding: ATRA1-AR<ATRA1-AR2<ATRA1-AR3. In ATRA1-R3, the lysine residues at 9th, 5th and 1st positions of ATRA1 were substituted with arginine. In ATRA1-R6 all of the lysine residues were replaced with arginine.

Sequence | membrane perturbation with respect to PMB ([1]; DPBS) | LPS binding (BC displacement), in words [2] | membrane perturbation with respect to PMB ([1]; PBS) | increase in affinity for LPS compared to the peptide lacking the hydrophobic tail [2] [fold] | membrane perturbation with respect to PMB ([1]; 10 mM phosphate buffer) | decrease in affinity for LPS relative to NA-CATH ([2]; deletion of hydrophobic tail) [%] | membrane perturbation with respect to PMB ([1]; DPBS, listed as ATRA-R3W2) [%]
KRAKKFFKKLK (SEQ ID NO: 4) [ATRA1-A] | less effective at perturbing the outer membrane than ATRA-1 | decreased LPS binding relative to ATRA1 |  |  |  |  | 
KRAKKFFKRLK (SEQ ID NO: 6) [ATRA1-AR] |  | lowest LPS binding of all of the peptides tested | decreased slightly |  |  |  | 
KRFKKFFKKLK (SEQ ID NO: 2) [ATRA1, first 11 residues of NA-CATH] | less than 50% |  | perturbed comparable to PMB |  |  |  | 
KRFKKFFKKLKGGVIGVTFPF (SEQ ID NO: 38) [ATRA1-HYD, ATRA1 with hydrophobic tail of NA-CATH joined at the C-terminus by a short -GG- segment] | ~75% |  |  | ~2 |  |  | 
KRFKKFFKKLKNSVKKRAKKFFKKPK (SEQ ID NO: 53) [NA-CATH26, first 26 residues of NA-CATH] |  |  | perturbed outer membrane greater than PMB |  | higher degree of membrane perturbations than PMB | ~30 | 
KRWKKWWKKWK (SEQ ID NO: 14) [ATRA1-W4] | higher OM perturbation than ATRA1 | higher efficacy to bind LPS than the parent ATRA1 |  |  |  |  | 
RRFKRFFKRLK (SEQ ID NO: 9) [ATRA1-R3] | higher OM perturbation than ATRA1 | higher LPS binding than ATRA1 |  |  |  |  | 
RRFRRFFRRLR (SEQ ID NO: 10) [ATRA1-R6] | higher OM perturbation than ATRA1 | bound LPS more effectively than ATRA1-R3 | decreased slightly |  |  |  | 
RRWKRFFKRWK (SEQ ID NO: 15) [ATRA1-R3W2] | higher OM perturbation than ATRA1 | more effective in LPS binding than either of ATRA1-R3 and ATRA1-W2; also recorded: binds LPS marginally greater than ATRA1 | perturbed comparable to PMB |  |  |  | ~65
RRWKRFFKRWKGGVIGVTFPF (SEQ ID NO: 50) [ATRA1-R3W2-HYD, ATRA1-R3W2 with hydrophobic tail of NA-CATH joined by -GG-] | ~100% | binds LPS with similar affinity as ATRA1-HYD | comparable to PMB | ~2 | 75% |  | 
